Data: ChEMBL document CHEMBL4630909 (2021)
The source made the active and inactive calls. The rule behind the calls is not given here.

Key:
[1] = target: 5-hydroxytryptamine receptor 2C (Homo sapiens, UniProt P28335); experiment: (§1) Cross screening panel
[2] = target: Cannabinoid receptor 2 (Homo sapiens, UniProt P34972); experiment: as §1
[3] = target: D(1A) dopamine receptor (Homo sapiens, UniProt P21728); experiment: as §1
[4] = target: Vasopressin V1a receptor (Homo sapiens, UniProt P37288); experiment: as §1
[5] = target: Peregrin (Homo sapiens, UniProt P55201); experiment: BRPF1 DiscoverX BROMOscan
[6] = target: Alpha-1B adrenergic receptor (Homo sapiens) (UniProt P35368); details: Compound concentration 10.0 uM
[7] = target: SWI/SNF-related matrix-associated actin-dependent regulator of chromatin subfamily A member 2 (Homo sapiens, UniProt P51531); experiment: SMARCA2 DiscoverX BROMOscan
[8] = target: Alpha-1A adrenergic receptor (Homo sapiens) (UniProt P35348); details: Compound concentration 10.0 uM
[9] = target: C-C motif chemokine 2 (Homo sapiens, UniProt P13500); experiment: In vitro inhibition of MCP-1 in Lipopolysaccharide-stimulated human whole blood; format: tissue-based
[10] = target: 5-hydroxytryptamine receptor 5A (Homo sapiens) (UniProt P47898); details: Compound concentration 10.0 uM
[11] = target: ATPase family AAA domain-containing protein 2B (Homo sapiens, UniProt Q9ULI0); experiment: ATAD2B DiscoverX BROMOscan
[12] = target: Beta-1 adrenergic receptor (Homo sapiens) (UniProt P08588); details: Compound concentration 10.0 uM
[13] = target: Sigma intracellular receptor 2 (Homo sapiens) (UniProt Q5BJF2); details: Compound concentration 10.0 uM
Chain of Sigma intracellular receptor 2 (Homo sapiens) (Q5BJF2 whole entry): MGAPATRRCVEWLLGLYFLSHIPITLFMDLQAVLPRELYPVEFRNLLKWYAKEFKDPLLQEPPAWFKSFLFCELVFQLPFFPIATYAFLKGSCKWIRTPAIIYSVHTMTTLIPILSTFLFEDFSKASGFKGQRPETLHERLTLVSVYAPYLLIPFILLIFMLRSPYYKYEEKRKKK

[14] = target: 5-hydroxytryptamine receptor 3A (Homo sapiens) (UniProt P46098); details: Compound concentration 10.0 uM
[15] = target: Bromodomain-containing protein 7 (Homo sapiens, UniProt Q9NPI1); experiment: BRD7 DiscoverX BROMOscan
[16] = target: Bromodomain and PHD finger-containing protein 3 (Homo sapiens, UniProt Q9ULD4); experiment: BRPF3 DiscoverX BROMOscan
[17] = target: T1, GABA-A receptor; anion channel (Rattus norvegicus) (UniProt O09028+P15431+P18506+P18508+P19969+P20236+P23574+P23576+P28471+P28473+P30191+P62813+P63079+P63138+Q91ZM7+Q9ES14); details: Compound concentration 10.0 uM
[18] = target: Delta-type opioid receptor (Homo sapiens) (UniProt P41143); details: Compound concentration 10.0 uM
[19] = target: Bromodomain and WD repeat-containing protein 1 (Homo sapiens, UniProt Q9NSI6); experiment: WDR9(2) DiscoverX BROMOscan
[20] = target: 5-hydroxytryptamine receptor 1B (Homo sapiens, UniProt P28222); details: Compound concentration 10.0 uM
[21] = target: Alpha-2B adrenergic receptor (Homo sapiens) (UniProt P18089); details: Compound concentration 10.0 uM
[22] = target: Transcription initiation factor TFIID subunit 1-like (Homo sapiens, UniProt Q8IZX4); experiment: TAF1L(2) DiscoverX BROMOscan
Chain of Transcription initiation factor TFIID subunit 1-like (Q8IZX4 whole entry): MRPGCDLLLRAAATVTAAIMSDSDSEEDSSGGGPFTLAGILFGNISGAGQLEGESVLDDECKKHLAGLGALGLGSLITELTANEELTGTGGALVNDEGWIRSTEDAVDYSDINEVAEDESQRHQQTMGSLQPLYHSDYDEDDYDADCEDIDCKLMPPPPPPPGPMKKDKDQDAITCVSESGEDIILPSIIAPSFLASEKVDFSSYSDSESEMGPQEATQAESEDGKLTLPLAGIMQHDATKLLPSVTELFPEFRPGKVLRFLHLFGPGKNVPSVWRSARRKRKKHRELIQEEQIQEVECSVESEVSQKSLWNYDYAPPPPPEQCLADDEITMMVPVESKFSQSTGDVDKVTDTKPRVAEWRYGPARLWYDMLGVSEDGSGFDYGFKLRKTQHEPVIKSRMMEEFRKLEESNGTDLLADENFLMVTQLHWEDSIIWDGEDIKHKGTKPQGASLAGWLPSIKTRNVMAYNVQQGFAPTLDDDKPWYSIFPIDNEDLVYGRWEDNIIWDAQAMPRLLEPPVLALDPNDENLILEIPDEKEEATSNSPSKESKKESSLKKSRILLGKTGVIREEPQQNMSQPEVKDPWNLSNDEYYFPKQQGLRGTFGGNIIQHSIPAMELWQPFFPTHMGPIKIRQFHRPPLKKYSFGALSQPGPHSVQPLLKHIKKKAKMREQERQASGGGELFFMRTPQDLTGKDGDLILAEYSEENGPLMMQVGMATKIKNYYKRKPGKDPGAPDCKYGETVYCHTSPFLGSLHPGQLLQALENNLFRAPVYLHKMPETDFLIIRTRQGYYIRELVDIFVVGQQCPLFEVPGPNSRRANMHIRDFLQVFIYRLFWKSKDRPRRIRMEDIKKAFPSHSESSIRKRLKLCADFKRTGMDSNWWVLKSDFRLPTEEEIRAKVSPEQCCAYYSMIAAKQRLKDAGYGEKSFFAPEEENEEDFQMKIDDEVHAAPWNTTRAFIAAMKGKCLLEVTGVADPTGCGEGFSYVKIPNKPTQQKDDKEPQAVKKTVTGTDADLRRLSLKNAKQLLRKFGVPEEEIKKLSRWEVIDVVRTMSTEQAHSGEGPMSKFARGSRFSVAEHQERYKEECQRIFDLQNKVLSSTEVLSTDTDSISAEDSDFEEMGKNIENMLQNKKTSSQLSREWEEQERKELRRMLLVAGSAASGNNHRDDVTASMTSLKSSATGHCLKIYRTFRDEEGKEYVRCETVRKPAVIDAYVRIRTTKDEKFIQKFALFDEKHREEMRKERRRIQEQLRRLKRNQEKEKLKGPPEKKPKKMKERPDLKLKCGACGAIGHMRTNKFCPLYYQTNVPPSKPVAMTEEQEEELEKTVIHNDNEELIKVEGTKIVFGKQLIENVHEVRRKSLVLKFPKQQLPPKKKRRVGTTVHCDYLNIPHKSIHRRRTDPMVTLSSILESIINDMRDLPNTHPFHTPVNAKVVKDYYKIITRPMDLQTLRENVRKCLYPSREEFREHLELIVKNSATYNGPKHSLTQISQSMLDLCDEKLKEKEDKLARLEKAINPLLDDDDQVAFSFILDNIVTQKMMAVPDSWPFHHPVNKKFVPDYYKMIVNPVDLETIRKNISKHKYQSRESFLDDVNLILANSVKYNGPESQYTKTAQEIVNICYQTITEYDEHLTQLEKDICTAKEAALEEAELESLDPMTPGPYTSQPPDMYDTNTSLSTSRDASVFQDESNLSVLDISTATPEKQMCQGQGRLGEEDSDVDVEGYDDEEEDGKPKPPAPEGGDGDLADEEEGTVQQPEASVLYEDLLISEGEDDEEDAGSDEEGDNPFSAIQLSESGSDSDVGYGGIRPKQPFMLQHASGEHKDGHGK

[23] = target: CREB-binding protein (Homo sapiens, UniProt Q92793); experiment: CREBBP DiscoverX BROMOscan
[24] = target: Chromatin remodeling regulator CECR2 (Homo sapiens, UniProt Q9BXF3); experiment: CECR2 DiscoverX BROMOscan
[25] = target: D(4) dopamine receptor (Homo sapiens) (UniProt P21917); details: Compound concentration 10.0 uM
[26] = target: 5-hydroxytryptamine receptor 2C (Homo sapiens) (UniProt P28335); details: Compound concentration 10.0 uM
[27] = target: Transcription initiation factor TFIID subunit 1 (Homo sapiens, UniProt P21675); experiment: TAF1(2) DiscoverX BROMOscan
Chain of Transcription initiation factor TFIID subunit 1 (P21675 whole entry): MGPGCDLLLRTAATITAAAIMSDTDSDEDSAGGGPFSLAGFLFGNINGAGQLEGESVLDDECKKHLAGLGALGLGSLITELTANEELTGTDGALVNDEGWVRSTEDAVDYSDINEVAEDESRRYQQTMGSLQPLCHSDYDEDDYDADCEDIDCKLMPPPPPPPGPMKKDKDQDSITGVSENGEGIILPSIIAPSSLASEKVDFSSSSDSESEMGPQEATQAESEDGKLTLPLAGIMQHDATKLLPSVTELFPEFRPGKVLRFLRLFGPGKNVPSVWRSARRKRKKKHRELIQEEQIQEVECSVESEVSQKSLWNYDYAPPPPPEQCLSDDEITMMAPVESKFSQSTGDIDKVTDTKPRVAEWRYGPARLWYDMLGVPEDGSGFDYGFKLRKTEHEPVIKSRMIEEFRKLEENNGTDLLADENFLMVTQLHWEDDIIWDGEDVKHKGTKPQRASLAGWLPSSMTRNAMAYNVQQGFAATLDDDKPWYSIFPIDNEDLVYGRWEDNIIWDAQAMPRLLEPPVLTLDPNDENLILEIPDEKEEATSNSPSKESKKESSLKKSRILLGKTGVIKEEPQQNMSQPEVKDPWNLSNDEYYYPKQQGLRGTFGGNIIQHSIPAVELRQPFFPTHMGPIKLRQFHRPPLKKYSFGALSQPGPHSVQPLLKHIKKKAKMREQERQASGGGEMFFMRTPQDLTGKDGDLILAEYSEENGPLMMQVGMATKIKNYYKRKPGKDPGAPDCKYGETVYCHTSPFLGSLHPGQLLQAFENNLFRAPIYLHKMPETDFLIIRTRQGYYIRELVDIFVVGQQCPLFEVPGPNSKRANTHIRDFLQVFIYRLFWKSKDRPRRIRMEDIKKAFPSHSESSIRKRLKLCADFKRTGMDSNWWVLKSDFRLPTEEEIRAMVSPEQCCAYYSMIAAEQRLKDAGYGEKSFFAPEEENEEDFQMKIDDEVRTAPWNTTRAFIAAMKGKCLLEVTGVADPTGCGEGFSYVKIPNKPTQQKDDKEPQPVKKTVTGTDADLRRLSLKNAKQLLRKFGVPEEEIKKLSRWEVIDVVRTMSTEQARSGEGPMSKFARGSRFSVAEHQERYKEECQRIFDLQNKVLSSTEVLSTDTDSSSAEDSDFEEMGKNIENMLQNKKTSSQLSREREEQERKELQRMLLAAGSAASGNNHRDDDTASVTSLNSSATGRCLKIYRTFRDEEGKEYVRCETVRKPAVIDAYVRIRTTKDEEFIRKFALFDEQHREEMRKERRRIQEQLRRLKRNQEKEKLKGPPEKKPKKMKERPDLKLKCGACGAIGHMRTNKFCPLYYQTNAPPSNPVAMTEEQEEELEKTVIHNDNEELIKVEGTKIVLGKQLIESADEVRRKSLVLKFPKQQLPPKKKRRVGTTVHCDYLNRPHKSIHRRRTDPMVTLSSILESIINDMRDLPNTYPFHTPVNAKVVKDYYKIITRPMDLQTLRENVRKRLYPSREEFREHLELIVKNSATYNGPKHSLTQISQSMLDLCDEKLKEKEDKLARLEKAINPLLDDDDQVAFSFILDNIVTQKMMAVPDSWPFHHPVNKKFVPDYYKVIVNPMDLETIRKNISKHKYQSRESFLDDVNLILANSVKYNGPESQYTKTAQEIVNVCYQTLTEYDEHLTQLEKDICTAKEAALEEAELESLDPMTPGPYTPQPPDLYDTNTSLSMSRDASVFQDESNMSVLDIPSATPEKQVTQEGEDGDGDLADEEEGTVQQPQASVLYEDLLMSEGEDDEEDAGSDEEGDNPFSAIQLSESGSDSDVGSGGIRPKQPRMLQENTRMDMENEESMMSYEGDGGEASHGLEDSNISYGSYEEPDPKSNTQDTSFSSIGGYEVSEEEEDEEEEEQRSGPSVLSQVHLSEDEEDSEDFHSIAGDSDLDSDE

[28] = target: D(2) dopamine receptor (Homo sapiens, UniProt P14416); details: Compound concentration 10.0 uM
[29] = target: Bromodomain-containing protein 9 (Homo sapiens, UniProt Q9H8M2); experiment: BRD9 DiscoverX BROMOscan
[30] = target: ATPase family AAA domain-containing protein 2 (Homo sapiens, UniProt Q6PL18); experiment: ATAD2A DiscoverX BROMOscan
[31] = target: T2, Bromodomain-containing protein 8 (Homo sapiens, UniProt Q9H0E9); experiment: BRD8(1) DiscoverX BROMOscan
T2 sequence (Q9H0E9 whole entry): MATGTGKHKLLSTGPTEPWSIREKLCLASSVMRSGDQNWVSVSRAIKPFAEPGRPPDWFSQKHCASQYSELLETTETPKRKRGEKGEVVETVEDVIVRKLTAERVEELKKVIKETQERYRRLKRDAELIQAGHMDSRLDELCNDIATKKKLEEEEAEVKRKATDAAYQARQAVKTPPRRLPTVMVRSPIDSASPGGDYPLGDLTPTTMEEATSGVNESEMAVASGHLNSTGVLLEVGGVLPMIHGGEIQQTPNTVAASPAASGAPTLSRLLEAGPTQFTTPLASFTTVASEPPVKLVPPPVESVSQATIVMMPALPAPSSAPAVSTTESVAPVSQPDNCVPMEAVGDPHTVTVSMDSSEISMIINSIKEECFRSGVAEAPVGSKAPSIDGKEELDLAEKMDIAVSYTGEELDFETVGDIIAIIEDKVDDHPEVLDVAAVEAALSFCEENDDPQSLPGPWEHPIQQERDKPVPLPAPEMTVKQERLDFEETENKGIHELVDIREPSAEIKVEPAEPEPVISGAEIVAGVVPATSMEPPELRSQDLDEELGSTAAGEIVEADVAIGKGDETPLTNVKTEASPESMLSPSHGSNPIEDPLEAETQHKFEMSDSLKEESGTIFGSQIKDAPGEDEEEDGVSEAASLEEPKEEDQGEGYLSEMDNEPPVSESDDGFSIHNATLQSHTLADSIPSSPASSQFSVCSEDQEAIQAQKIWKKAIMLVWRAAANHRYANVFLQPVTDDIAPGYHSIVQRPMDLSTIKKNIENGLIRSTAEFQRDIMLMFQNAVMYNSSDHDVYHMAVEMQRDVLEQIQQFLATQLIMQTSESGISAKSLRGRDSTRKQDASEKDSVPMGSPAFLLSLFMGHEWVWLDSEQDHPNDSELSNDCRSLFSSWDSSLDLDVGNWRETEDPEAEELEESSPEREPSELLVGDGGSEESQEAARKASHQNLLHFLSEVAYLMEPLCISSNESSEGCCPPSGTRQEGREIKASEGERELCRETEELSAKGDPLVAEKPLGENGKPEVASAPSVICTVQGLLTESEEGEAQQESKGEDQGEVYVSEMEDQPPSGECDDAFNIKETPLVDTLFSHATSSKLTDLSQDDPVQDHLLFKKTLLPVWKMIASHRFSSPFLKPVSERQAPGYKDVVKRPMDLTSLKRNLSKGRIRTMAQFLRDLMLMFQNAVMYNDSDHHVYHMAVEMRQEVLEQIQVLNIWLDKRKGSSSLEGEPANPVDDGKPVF

[32] = target: Nucleosome-remodeling factor subunit BPTF (Homo sapiens, UniProt Q12830); experiment: FALZ DiscoverX BROMOscan
[33] = target: Bromodomain-containing protein 1 (Homo sapiens, UniProt O95696); experiment: BRD1 DiscoverX BROMOscan
[34] = target: Transcription intermediary factor 1-alpha (Homo sapiens, UniProt O15164); experiment: TRIM24(PHD,Bromo.) DiscoverX BROMOscan
[35] = target: Mu-type opioid receptor (Homo sapiens, UniProt P35372); details: Compound concentration 10.0 uM
[36] = target: Alpha-2C adrenergic receptor (Homo sapiens) (UniProt P18825); details: Compound concentration 10.0 uM
[37] = target: Histone acetyltransferase KAT2A (Homo sapiens, UniProt Q92830); experiment: GCN5L2 DiscoverX BROMOscan
[38] = target: Histamine H2 receptor (Homo sapiens) (UniProt P25021); details: Compound concentration 10.0 uM
[39] = target: Voltage-gated potassium channel, IKs; KCNQ1(Kv7.1)/KCNE1(MinK) (Homo sapiens, UniProt P15382+P51787); experiment: as §1; format: protein-complex assay
[40] = target: GABA-A receptor; anion channel; experiment: as §1; format: protein-complex assay
[41] = species on record: Rattus norvegicus; details: Compound concentration 10.0 uM
[42] = target: SWI/SNF-related matrix-associated actin-dependent regulator of chromatin subfamily A member 4 (Homo sapiens, UniProt P51532); experiment: SMARCA4 DiscoverX BROMOscan
[43] = target: Muscarinic acetylcholine receptor M3 (Homo sapiens) (UniProt P20309); details: Compound concentration 10.0 uM
[44] = target: Bromodomain adjacent to zinc finger domain protein 2A (Homo sapiens, UniProt Q9UIF9); experiment: BAZ2A DiscoverX BROMOscan
[45] = target: T2, Bromodomain-containing protein 8; experiment: BRD8(2) DiscoverX BROMOscan
[46] = target: Muscarinic acetylcholine receptor M5 (Homo sapiens) (UniProt P08912); details: Compound concentration 10.0 uM
[47] = target: Histone acetyltransferase KAT2B (Homo sapiens, UniProt Q92831); experiment: PCAF DiscoverX BROMOscan
[48] = target: 5-hydroxytryptamine receptor 1A (Homo sapiens) (UniProt P08908); details: Compound concentration 10.0 uM
[49] = target: D(3) dopamine receptor (Homo sapiens) (UniProt P35462); details: Compound concentration 10.0 uM
[50] = target: Protein polybromo-1 (Homo sapiens, UniProt Q86U86); experiment: PBRM1(2) DiscoverX BROMOscan
[51] = target: Beta-2 adrenergic receptor (Homo sapiens, UniProt P07550); details: Compound concentration 10.0 uM
[52] = target: 5-hydroxytryptamine receptor 6 (Homo sapiens) (UniProt P50406); details: Compound concentration 10.0 uM
[53] = target: Alpha-2A adrenergic receptor (Homo sapiens) (UniProt P08913); details: Compound concentration 10.0 uM
[54] = target: Muscarinic acetylcholine receptor M2 (Homo sapiens) (UniProt P08172); details: Compound concentration 10.0 uM
[55] = target: 5-hydroxytryptamine receptor 2A (Homo sapiens, UniProt P28223); details: Compound concentration 10.0 uM
[56] = target: T1, GABA-A receptor; anion channel (Rattus norvegicus); details: Compound concentration 10.0 uM; remark: listed apart in the source

CNC(=O)c1cc(C(=O)NC2CC2)cn(Cc2ccccc2)c1=O [GSK620]
IC50 [1]: > 25.1 µM | EC50 [2]: > 10 µM | IC50 [3]: > 100 µM | IC50 [4]: > 50.1 µM | Kd [5]: 31.6 µM | inhibition [6]: 7.27% | Kd [7]: 31.6 µM | inhibition [8]: -0.64% | IC50 [9]: 794 nM (active) | inhibition [10]: -4.41% | Kd [11]: 31.6 µM | inhibition [12]: -6.19% | inhibition [13]: 7.83% | inhibition [14]: 14.3% | Kd [15]: 31.6 µM | Kd [16]: 31.6 µM | inhibition [17]: 28.2% | inhibition [18]: -2.78% | Kd [19]: 31.6 µM | inhibition [20]: -3.67% | inhibition [21]: 5.2% | Kd [22]: 25.1 µM | Kd [23]: 10 µM | Kd [24]: 31.6 µM | inhibition [25]: 6.96% | inhibition [26]: 32.1% | Kd [27]: 3.98 µM | inhibition [28]: -2.98% | Kd [29]: 31.6 µM | Kd [30]: 31.6 µM | Kd [31]: 31.6 µM | Kd [32]: 25.1 µM | Kd [33]: 25.1 µM | Kd [34]: 31.6 µM | inhibition [35]: 13.5% | inhibition [36]: 0.69% | Kd [37]: 31.6 µM | inhibition [38]: -9.14% | IC50 [39]: > 25.1 µM | pEC50 [40]: < 4 | pIC50 [40]: < 4 | inhibition [41]: 7.71% | Kd [42]: 31.6 µM | inhibition [43]: 21.4% | Kd [44]: 31.6 µM | Kd [45]: 31.6 µM | inhibition [46]: -5.05% | Kd [47]: 31.6 µM | inhibition [48]: 6.03% | inhibition [49]: 1.54% | Kd [50]: 31.6 µM | inhibition [51]: 16.5% | inhibition [52]: 10.9% | inhibition [53]: -4.53% | inhibition [54]: 13.2% | inhibition [55]: -8.9% | inhibition [56]: 8.55%
